# Measurements taken from patent publication US20100292217A1, “RANOLAZINE FOR THE TREATMENT OF CNS DISORDERS” (Gilead Palo Alto, Inc., priority 2009, published 2010).
# Where two headings read alike, the source gives them in different places.
# Columns and labels:
# Nav1.4 = conditions: inverse sodium gradient, Wang et al. 2008; cited from earlier work
# [1] = molecular target: cardiac voltage-gated potassium channel HERG (Homo sapiens, UniProt Q12809); conditions: accounts for mild QT interval prolongation in some subjects; cited from earlier work
# Chain of cardiac voltage-gated potassium channel HERG (Q12809 whole entry, the tested form may be a part): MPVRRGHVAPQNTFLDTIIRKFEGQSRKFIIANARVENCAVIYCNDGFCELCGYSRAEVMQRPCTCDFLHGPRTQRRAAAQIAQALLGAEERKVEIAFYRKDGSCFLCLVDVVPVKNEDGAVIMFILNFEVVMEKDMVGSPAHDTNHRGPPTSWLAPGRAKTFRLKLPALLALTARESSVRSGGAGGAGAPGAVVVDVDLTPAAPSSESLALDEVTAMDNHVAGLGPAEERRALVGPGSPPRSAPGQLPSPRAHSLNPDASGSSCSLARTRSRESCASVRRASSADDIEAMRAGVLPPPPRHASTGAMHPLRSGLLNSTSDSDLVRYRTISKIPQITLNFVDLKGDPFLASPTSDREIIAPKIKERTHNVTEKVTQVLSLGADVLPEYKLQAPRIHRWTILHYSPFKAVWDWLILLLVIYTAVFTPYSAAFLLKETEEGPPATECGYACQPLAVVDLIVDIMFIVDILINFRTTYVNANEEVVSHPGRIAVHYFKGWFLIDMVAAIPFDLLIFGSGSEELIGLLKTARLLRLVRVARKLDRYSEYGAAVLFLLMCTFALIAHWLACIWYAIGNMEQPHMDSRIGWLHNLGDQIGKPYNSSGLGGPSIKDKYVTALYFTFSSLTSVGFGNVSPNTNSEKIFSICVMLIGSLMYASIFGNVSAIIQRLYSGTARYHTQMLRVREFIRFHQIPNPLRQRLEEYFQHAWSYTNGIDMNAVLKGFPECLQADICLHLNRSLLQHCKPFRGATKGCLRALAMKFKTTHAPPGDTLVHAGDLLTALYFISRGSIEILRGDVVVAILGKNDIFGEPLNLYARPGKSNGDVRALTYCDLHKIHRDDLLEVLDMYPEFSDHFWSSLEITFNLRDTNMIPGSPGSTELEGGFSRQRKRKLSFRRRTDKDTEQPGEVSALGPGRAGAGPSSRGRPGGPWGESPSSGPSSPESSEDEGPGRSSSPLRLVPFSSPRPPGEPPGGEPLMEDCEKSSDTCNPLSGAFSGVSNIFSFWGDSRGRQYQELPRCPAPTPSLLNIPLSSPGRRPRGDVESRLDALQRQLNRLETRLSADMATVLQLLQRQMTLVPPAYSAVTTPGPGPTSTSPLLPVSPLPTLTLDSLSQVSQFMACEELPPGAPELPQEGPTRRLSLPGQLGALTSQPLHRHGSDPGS
# [2] = Brain penetration in rats after continuous intravenous infusion (LC-MS/MS); type: in vivo, Sprague Dawley rats; conditions: for concentration at 1 h / concentration at 2.5 h / concentration at 5 h: 85.5 μg/kg/min
# Procedure: Jugular vein cannulated male Sprague Dawley rats (250-350 g, Charles River Laboratories, Hollister, Calif.) were used to study brain penetration of ranolazine in vivo. Animal use was approved by the Institutional Animal Care and Use Committee, Gilead Sciences. Three rats per group were infused intravenously with ranolazine in saline at 85.5 μg/kg/min. After 1, 2.5 or 5 h animals were sacrificed for plasma and brain collection, and ranolazine concentrations were measured by liquid chromatography coupled with tandem mass spectrometry (LC-MS/MS). Brain tissue was homogenated in 1% 2N HCl acidified 5% sodium fluoride (final homogenate was diluted 3-fold). Plasma and brain homogenate samples (50 μl) were precipitated along with deuterated D3-ranolazine as an internal standard, vortexed and centrifuged. The supernatant (50 μL) was transferred and diluted with water (450 μl) prior to injection (10 μl). High performance liquid chromatography was performed using a Shimadzu LC-10AD liquid chromatograph and a Luna C18(2), 3 μm, 20×2.0 mm column with a mobile phase consisting of water containing 0.1% formic acid (solution A) and acetonitrile (solution B) carried out under isocratic conditions (75% solution A, 25% solution B; flow rate 0.300 ml/min). Mass spectrometric analyses were performed using an API3000 mass spectrometer (Applied Biosystems, Foster City, Calif.) operating in positive ion mode with MRM transition 428.1>98. Brain-to-plasma ranolazine ratios were calculated for each sample as ng ranolazine/g brain divided by ng ranolazine/ml plasma.
# Nav1.1 R1648H = molecular target: T1, Nav1.1 R1648H (Homo sapiens, UniProt P35498, R1648H); test: Whole-cell voltage-clamp of mutant Nav1.1 R1648H (GEFS+); type: cell-based
# T1 construct: expressed in transfected cells; host or cells: tsA201 cells (named for WT; same transient transfection method for mutants)
# WT-Nav1.2 = molecular target: T2, WT-Nav1.2 (Homo sapiens, UniProt Q99250); test: Whole-cell voltage-clamp of WT-Nav1.2 stably transfected in CHO cells; type: cell-based; conditions: Example 2; methods in present tense, no data given
# T2 construct: expressed in transfected cells
# T2 sequence (Q99250 whole entry): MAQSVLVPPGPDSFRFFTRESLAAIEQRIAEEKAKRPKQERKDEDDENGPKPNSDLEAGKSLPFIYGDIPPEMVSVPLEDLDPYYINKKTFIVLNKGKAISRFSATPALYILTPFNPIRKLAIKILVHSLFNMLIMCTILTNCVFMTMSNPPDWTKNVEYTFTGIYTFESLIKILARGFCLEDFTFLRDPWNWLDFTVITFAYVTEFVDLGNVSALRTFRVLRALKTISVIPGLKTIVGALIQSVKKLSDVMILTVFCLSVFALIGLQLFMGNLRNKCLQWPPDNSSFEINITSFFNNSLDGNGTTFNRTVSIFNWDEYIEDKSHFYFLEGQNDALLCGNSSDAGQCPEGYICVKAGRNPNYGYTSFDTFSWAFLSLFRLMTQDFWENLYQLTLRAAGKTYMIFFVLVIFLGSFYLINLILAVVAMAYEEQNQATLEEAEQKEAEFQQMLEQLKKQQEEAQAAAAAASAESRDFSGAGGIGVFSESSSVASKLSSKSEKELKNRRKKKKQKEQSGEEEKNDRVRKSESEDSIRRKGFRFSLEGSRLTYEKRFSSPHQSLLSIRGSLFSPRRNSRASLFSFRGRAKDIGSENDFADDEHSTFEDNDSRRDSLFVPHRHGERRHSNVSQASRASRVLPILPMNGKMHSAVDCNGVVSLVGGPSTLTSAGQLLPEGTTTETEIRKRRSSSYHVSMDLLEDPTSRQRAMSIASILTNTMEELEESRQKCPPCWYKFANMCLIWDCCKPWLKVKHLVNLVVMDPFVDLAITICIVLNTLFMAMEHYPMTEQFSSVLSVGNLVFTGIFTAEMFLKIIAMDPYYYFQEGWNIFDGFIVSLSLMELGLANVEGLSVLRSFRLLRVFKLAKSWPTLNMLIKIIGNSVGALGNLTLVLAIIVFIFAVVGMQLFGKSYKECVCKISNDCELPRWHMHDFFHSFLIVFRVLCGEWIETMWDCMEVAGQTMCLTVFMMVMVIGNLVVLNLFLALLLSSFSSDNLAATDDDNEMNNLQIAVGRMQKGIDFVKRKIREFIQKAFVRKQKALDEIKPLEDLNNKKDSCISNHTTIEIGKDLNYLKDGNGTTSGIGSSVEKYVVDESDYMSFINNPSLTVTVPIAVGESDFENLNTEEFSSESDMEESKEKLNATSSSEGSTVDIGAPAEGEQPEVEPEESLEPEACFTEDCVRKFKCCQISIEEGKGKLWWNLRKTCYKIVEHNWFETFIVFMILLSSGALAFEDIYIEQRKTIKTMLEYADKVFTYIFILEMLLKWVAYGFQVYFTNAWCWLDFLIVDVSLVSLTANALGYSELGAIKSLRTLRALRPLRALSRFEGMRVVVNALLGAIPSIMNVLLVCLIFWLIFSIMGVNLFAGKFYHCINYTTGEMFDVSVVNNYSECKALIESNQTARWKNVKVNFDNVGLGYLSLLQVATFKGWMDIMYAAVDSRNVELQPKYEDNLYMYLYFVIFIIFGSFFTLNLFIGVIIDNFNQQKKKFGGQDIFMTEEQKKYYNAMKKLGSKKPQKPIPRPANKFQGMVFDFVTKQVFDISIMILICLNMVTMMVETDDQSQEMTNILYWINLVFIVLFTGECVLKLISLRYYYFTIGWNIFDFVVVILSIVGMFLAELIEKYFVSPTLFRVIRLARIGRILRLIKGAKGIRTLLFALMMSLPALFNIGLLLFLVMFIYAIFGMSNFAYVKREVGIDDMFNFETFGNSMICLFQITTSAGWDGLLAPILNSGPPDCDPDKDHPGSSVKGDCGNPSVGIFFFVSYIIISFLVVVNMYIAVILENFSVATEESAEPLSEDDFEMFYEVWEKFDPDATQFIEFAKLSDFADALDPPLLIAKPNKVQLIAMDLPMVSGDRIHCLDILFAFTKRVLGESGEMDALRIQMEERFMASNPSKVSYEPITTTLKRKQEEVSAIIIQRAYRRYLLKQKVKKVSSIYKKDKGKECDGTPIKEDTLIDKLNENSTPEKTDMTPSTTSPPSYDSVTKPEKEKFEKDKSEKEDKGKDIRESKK
# [3] = tested on: Nav1.1 mutant channels (R1648H, T875M, R1648C, F1661S, L263V, Q1489K); test: Whole-cell voltage-clamp of panel of Nav1.1 mutant channels (GEFS+, SMEI, FHM3); type: cell-based, Human
# [4] = usual clinical dosages; minority with mild dizziness, nausea, headache, constipation; cited from earlier work
# [5] = Sicouri 2008; Chaitman 2006; cited from earlier work
# WT-Nav1.1 = molecular target: T3, WT-Nav1.1 (Homo sapiens, UniProt P35498); test: Whole-cell voltage-clamp of WT-Nav1.1 expressed heterologously in tsA201 cells; type: cell-based
# T3 construct: expressed in transfected cells; host or cells: tsA201 cells, transient transfection
# [6] = 3 μM ranolazine, pulse trains 10-135 Hz
# [7] = pulse 300 of 10 Hz train, read-out: Use-Dependent Block of Peak Current IC50
# [8] = read-out: Tonic Block of Peak Current IC50
# [9] = read-out: Tonic Block of Persistent Current IC50
# [10] = summary statement, persistent current evoked by SCN1A mutations, channel not specified
structure (smiles),measurement,setting,value
"COc1ccccc1OCC(O)CN1CCN(CC(=O)Nc2c(C)cccc2C)CC1 (racemic) [Ranolazine, (±)-N-(2,6-dimethylphenyl)-4-[2-hydroxy-3-(2-methoxyphenoxy)-propyl]-1-piperazineacetamide]",Association rate kon,Nav1.4,8.2e+06 M⁻¹ s⁻¹
same,Block of HERG,[1],blocks
same,Feasible brain concentration,[2]; extrapolated from therapeutic plasma concentration 2-10 μM,up to 3.3 μM
same,Kp at 1 h,"[2]; male, Sprague Dawley, brain, iv, rat, i.v. infusion 85.5 μg/kg/min, 1 h, read-out: Brain/Plasma",0.38
same,Kp at 2.5 h,"[2]; male, Sprague Dawley, brain, iv, rat, i.v. infusion 85.5 μg/kg/min, 2.5 h, read-out: Brain/Plasma",0.38
same,Kp at 5 h,"[2]; male, Sprague Dawley, brain, iv, rat, i.v. infusion 85.5 μg/kg/min, 5 h, read-out: Brain/Plasma",0.3
same,concentration at 1 h,"[2]; male, Sprague Dawley, rat, brain, iv, Brain (molar), rat, i.v. infusion 85.5 μg/kg/min, 1 h, heading: Brain",700 nM
same,concentration at 2.5 h,"[2]; male, Sprague Dawley, rat, brain, iv, Brain (molar), rat, i.v. infusion 85.5 μg/kg/min, 2.5 h, heading: Brain",1040 nM
same,concentration at 1 h,"[2]; male, Sprague Dawley, rat, brain, iv, rat, i.v. infusion 85.5 μg/kg/min, 1 h, read-out: Brain",298 ± 88.6 ng/g
same,concentration at 2.5 h,"[2]; male, Sprague Dawley, rat, brain, iv, rat, i.v. infusion 85.5 μg/kg/min, 2.5 h, read-out: Brain",446 ± 302 ng/g
same,concentration at 5 h,"[2]; male, Sprague Dawley, rat, brain, iv, rat, i.v. infusion 85.5 μg/kg/min, 5 h, read-out: Brain",470 ± 300 ng/g
same,concentration at 1 h,"[2]; male, Sprague Dawley, rat, plasma, iv, rat, i.v. infusion 85.5 μg/kg/min, 1 h, read-out: Plasma",777 ± 255 ng/mL
same,concentration at 2.5 h,"[2]; male, Sprague Dawley, rat, plasma, iv, rat, i.v. infusion 85.5 μg/kg/min, 2.5 h, read-out: Plasma",1180 ± 456 ng/mL
same,concentration at 5 h,"[2]; male, Sprague Dawley, rat, plasma, iv, rat, i.v. infusion 85.5 μg/kg/min, 5 h, heading: Plasma, read-out: Plasma",3720 nM
same,concentration at 5 h,"[2]; male, Sprague Dawley, rat, plasma, iv, rat, i.v. infusion 85.5 μg/kg/min, 5 h, read-out: Plasma",1590 ± 488 ng/mL
same,Brain penetration,"[2]; rat, all time points (1, 2.5, 5 h)",significant brain penetration
same,Brain,"[2]; rat, i.v. infusion 85.5 μg/kg/min, 5 h",470 ng/g
same,Mean brain levels as fraction of corresponding plasma levels,"[2]; rat, throughout the time course 1-5 h",approximately one third
same,Potency at inhibiting persistent current compared to use-dependent block of peak current,Nav1.1 R1648H,4.6 fold
same,Selectivity for tonic block of persistent current over peak current,Nav1.1 R1648H,approximately 16 fold
same,Tonic Block of Peak Current k (Hill slope),Nav1.1 R1648H,−1.00 ± 0.19
same,Tonic Block of Persistent Current k (Hill slope),Nav1.1 R1648H,−1.00 ± 0.09
same,"Charge conducted during slow depolarizing voltage ramp (−40 to 0 mV, normalized to peak current)","Nav1.1 R1648H; 3 μM ranolazine, 20 mV/s ramp",reduced the charge conducted by R1648H to the level observed in cells expressing WT channels recorded in the absence of drug
same,Use-dependent block: loss of channel availability,Nav1.1 R1648H; [6],exaggerated loss of availability at all frequencies greater than 22 Hz
same,Effect on persistent current,Nav1.1 R1648H; 30 μM ranolazine,substantially reduced
same,Tonic block of peak current,Nav1.1 R1648H; 30 μM ranolazine,minimal tonic block
same,Use-Dependent Block of Peak Current k (Hill slope),Nav1.1 R1648H; 10 Hz train,−0.88 ± 0.03
same,IC50,Nav1.1 R1648H; [7],138 µM
same,IC50,Nav1.1 R1648H; [8],490 µM
same,IC50,Nav1.1 R1648H; [9],30.2 µM
same,Inhibition of WT-Nav1.2,WT-Nav1.2,has the ability to inhibit WT-Nav1.2
same,Use-dependent block: channel availability by the 300th pulse,"[3]; 30 μM ranolazine, WT-Nav1.1 and mutant channels, 10 Hz",significant loss of channel availability
same,Block of persistent current compared to peak current,"[3]; 30 μM ranolazine, all mutants, tonic block",much greater degree of ranolazine block of persistent current as compared to peak current
same,Use-dependent reduction in channel availability compared to WT-Nav1.1,"[3]; 30 μM ranolazine, mutants R1648H, T875M and R1648C",significantly greater reduction in channel availability
same,Level of persistent current in presence of ranolazine versus WT-Nav1.1 without drug,"[3]; 30 μM ranolazine, mutants R1648H, T875M, L263V",not significantly different from WT-Nav1.1 channels in the absence of drug
same,Greater inhibition of persistent current compared to tonic block of peak current,[3]; [10],16 fold
same,Greater inhibition of persistent current compared to use-dependent block of peak current,[3]; [10],5 fold
same,Tolerability,[4],well tolerated
same,Usual therapeutic plasma concentration,[5],2 to 10 µM
same,Potency at inhibiting persistent current compared to use-dependent block of peak current,WT-Nav1.1,3.6 fold
same,Selectivity for tonic block of persistent current over peak current,WT-Nav1.1,approximately 16 fold
same,Tonic Block of Peak Current k (Hill slope),WT-Nav1.1,−0.84 ± 0.15
same,Tonic Block of Persistent Current k (Hill slope),WT-Nav1.1,−0.83 ± 0.06
same,Use-dependent block: loss of channel availability,WT-Nav1.1; [6],exaggerated loss of availability at all frequencies greater than 22 Hz
same,Effect on peak current density,WT-Nav1.1; 30 μM ranolazine,no significant effect
same,Shift of voltage-dependence of activation or inactivation,WT-Nav1.1; 30 μM ranolazine,did not significantly shift
same,Tonic block of peak current,WT-Nav1.1; 30 μM ranolazine,minimal
same,Use-dependent block: peak current during repetitive pulsing,"WT-Nav1.1; 30 μM ranolazine, 5 ms, −10 mV, 300 pulses, 10 Hz",caused a reduction in peak current during repetitive pulsing
same,Inactivation k (slope factor),"WT-Nav1.1; 30 μM ranolazine, fast inactivation",−8.0 ± 0.5 mV
same,Inactivation V1/2,"WT-Nav1.1; 30 μM ranolazine, fast inactivation, 100 ms prepulses",−64.2 ± 0.8 mV
same,Activation V1/2,"WT-Nav1.1; 30 μM ranolazine, n=10",−21.6 ± 0.8 mV
same,Activation k (slope factor),"WT-Nav1.1; 30 μM ranolazine, n=10",8.0 ± 0.2 mV
same,Use-Dependent Block of Peak Current k (Hill slope),WT-Nav1.1; 10 Hz train,−0.84 ± 0.05
same,IC50,WT-Nav1.1; [7],195 µM
same,IC50,WT-Nav1.1; [8],871 µM
same,IC50,WT-Nav1.1; [9],53.7 µM
